Experiment [1] deals with T1, BACE-1 (Mus musculus, UniProt P56818).
T1 construct: a brain membrane extract containing endogenous BACE-1; from tissue; host or cells: mouse brain membrane preparation (wild-type mice)
The experiment can be described thus: Brain BACE-1 activity assay, brain membrane extract, coumarin-labeled 10-mer substrate, HPLC detection. Conditions: E64 at 10 μM; membrane preparations from WT mice. It is filed as biochemical. As for the experimental part: (§1) Brain BACE-1 enzymatic activity was measured using brain membrane extracts in a two-step method. In the first reaction step, a brain membrane extract containing endogenous BACE-1 is reacted with a coumarin labeled 10-mer peptide substrate in the presence of non-specific protease inhibitor cocktail and aspartyl protease inhibitor Pepstatin A. In a second detection step, an HPLC-based detection method is used to determine the extent of enzymatic cleavage of the 10-mer substrate.
(§2) Brain membranes are prepared as follows. Mice brain sections are homogenized in 10× w/v 50 mM MES buffer with protease inhibitor (Roche Applied Science, Indianapolis, Ind., Cat#11836145), pH 6.0 using a glass/Teflon homogenizer, using about 10 strokes. The homogenates are then spun at 2000 rpm (900×g) at 4° C. for 10 minutes. […] Protein concentration is determined using modified Bradford method (DC protein assay kit Cat#500-0114, Bio-Rad Laboratories, Hercules, Calif.). […]
(§3) In the second step, the BACE-1 cleavage product is detected. The resulting mixture is then chromatographed in a Waters Alliance HT HPLC system (Waters 2790, Waters Corporation, Milford, Mass.) to detect product and substrate fluorescence as follows. […]
(§4) The amount of cleaved product and substrate are detected with excitation at 340 nm and emission at 440 nm.

Experiment [2] relates to BACE-1 activity in CSF. The experiment can be described thus: CSF BACE-1 activity with combinations of protease inhibitors (FIG. 9). Conditions: Merck-3 at 10 μM; Pepstatin A 10 μM present. In kind it is biochemical. As for the experimental part: (§5) This example illustrates a method for solution based detection of BACE-1 activity in cerebral spinal fluid (CSF). BACE-1 enzymatic activity in CSF was measured using a two-step method. In the first step, cleavage of a biotinylated peptide substrate is accomplished using CSF as the source of BACE-1 enzyme. In the second step, the extent of enzymatic cleavage of substrate is detected using an avidin-biotin complex and enzyme linked immunosorbent assay (ELISA).
(§6) In the peptide substrate cleavage step, 25 μL of either purified recombinant baculovirus expressed BACE-1(aa1-460) at a range of concentration from 0.8 pM to 100 pM or rhesus or human CSF is added to the wells of a 96 well assay plate (COSTAR brand, Cat#3365). […]
(§7) In the second step, the product of BACE-1 enzymatic cleavage of the biotin-labeled peptide is measured by ELISA. […]
(§8) Afterwards, the plate is washed three times with PBST. […] The reaction is finally developed using 100 μL/well of CDP-STAR ready-to-use with HRP substrate (EMD Biosciences, Inc. San Diego, Calif.) or SAPPHIRE-II Enhancer substrate (Applied Biosystems, Foster City, Calif., Cat# T2214) for 30 minutes at room temperature. Absorbance or Luminescence counts, respectively, are measured in LJL-Analyst (Molecular Devices Corp., Sunnyvale, Calif.). […]

The subject of experiment [3] is non-specific aspartyl protease activity. Put plainly: Non-specific aspartyl protease activity in brain membrane preparations, same HPLC cleavage assay. In kind it is biochemical, mouse. The settings on record: membrane preparations from WT mice. As for the experimental part:
as §1, §2, §3, §4

The test system is the same in experiment [4]. Put plainly: Non-specific aspartyl protease activity in CSF (FIG. 9). It is filed as biochemical. The settings on record: Pepstatin A 10 μM; this activity was about 59% of the protease activity in CSF. As for the experimental part: as §5, §6, §7, §8

Non-standard residues stand in square brackets, D forms with d. Residues, ends and D or L forms follow the SMILES beside them. *: point of attachment. Sta = CC(C)C[C@H](N)[C@@H](O)CC(=O)O; Isovaleryl = CC(C)CC(=O)*

T1 sequence (P56818 46-501): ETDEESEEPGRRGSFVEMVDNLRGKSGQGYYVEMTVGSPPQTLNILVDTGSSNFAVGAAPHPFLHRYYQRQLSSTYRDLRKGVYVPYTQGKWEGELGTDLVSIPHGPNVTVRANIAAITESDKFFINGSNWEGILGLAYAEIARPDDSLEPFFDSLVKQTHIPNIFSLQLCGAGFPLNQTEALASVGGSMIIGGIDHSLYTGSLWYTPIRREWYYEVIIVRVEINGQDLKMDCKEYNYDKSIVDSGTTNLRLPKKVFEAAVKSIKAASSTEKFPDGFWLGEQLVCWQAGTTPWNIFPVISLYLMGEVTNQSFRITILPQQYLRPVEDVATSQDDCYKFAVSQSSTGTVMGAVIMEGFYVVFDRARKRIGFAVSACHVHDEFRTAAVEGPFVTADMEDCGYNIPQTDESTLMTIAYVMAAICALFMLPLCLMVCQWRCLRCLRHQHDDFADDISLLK

With `CC(C)C[C@H](NC(=O)[C@H]1O[C@@H]1C(=O)O)C(=O)NCCCCN=C(N)N` [E64], the “effect on cleavage of substrate (FIG. 4)” value in experiment [1] is recorded as “no effect on cleavage of substrate”.

Turning to `C[C@@H](NC(=O)c1cc(C(=O)N[C@@H](Cc2ccccc2)[C@H](O)CNC2CC2)cc(N(C)S(C)(=O)=O)c1)c1ccccc1` [Merck-3], the “BACE-1 activity in CSF remaining after Pepstatin A (FIG. 9)” value in experiment [2] is on record as “completely abolished”. Regarding `CC(C)CC(=O)N[C@H](C(=O)N[C@H](C(=O)N[C@@H](CC(C)C)[C@@H](O)CC(=O)N[C@@H](C)C(=O)N[C@@H](CC(C)C)[C@@H](O)CC(=O)O)C(C)C)C(C)C` [Pepstatin A, pepstatin A] (Isovaleryl-VV[Sta]A[Sta]-OH), in experiment [3], the “non-specific aspartyl protease activity (FIG. 4)” value is given as “abolished”. Also, the “non-specific aspartyl protease activity in CSF (FIG. 9)” value in experiment [4] is “abolished”.
